Measurements as given in patent publication US8551978B2 (Theravance, Inc., priority 2009, dated 2013).
pEC50, pKi: −log10 of the molar value. Counter-ions that a name gives are not always drawn. Like-named read-outs stand apart in the source and are kept apart here.

Columns and labels:
hM3 muscarinic receptor = hM3 muscarinic receptor (Homo sapiens (Human), UniProt P20309); assay: Radioligand binding assay for muscarinic receptors ([3H]-NMS displacement, CHO cell membranes)
Outline: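 [3H]-NMS displacement used homogenized CHO membranes, with test compounds at final concentrations of […]. Plates were incubated 6 hours at 37 °C, then filtered and read by liquid scintillation counting. A one-site competition fit gave values that were converted to Ki.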

hβ2 adrenergic receptor = hβ2 adrenergic receptor (Homo sapiens (Human), UniProt P07550); assay: Assay for determining adrenergic receptor agonist potency (cAMP Flashplate, HEK-293 cells); format: cell-based; settings: data rounded to nearest 1 nM
Chain of hβ2 adrenergic receptor (P07550 whole entry): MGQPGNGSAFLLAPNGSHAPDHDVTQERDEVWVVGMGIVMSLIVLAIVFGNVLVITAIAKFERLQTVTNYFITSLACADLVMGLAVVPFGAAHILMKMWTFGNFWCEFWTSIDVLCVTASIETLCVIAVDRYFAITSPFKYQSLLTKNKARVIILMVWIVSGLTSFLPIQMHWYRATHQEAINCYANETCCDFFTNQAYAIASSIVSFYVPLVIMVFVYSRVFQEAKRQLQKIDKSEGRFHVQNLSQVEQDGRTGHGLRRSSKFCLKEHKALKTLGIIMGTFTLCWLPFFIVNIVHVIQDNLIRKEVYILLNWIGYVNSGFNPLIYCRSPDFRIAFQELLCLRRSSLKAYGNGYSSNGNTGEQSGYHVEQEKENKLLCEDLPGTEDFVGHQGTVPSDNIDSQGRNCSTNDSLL

[1] = test system: MCh-induced bronchoconstriction; assay: Einthoven assay: bronchoprotection against methacholine (MCh)-induced bronchoconstriction; format: in vivo, rat; settings: for inhibition in vivo at 0.1 mg: inhaled or nasal, read-out: Broncho. at 24 h
Outline: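 Male Sprague-Dawley rats received 100 μg compound (unless stated) or water vehicle by 10-min inhalation. At set times, anesthetized, ventilated rats were challenged with IV MCh at 40 and 80 μg/kg (2.5-min infusions). Ventilation-pressure rise is expressed as % inhibition versus vehicle controls.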

[2] = rat, 100 μg by inhalation, 24 h after administration
[3] = hM3 Muscarinic Receptor Binding, data rounded to nearest 0.1 nM

Chain of hM3 muscarinic receptor (P20309 whole entry): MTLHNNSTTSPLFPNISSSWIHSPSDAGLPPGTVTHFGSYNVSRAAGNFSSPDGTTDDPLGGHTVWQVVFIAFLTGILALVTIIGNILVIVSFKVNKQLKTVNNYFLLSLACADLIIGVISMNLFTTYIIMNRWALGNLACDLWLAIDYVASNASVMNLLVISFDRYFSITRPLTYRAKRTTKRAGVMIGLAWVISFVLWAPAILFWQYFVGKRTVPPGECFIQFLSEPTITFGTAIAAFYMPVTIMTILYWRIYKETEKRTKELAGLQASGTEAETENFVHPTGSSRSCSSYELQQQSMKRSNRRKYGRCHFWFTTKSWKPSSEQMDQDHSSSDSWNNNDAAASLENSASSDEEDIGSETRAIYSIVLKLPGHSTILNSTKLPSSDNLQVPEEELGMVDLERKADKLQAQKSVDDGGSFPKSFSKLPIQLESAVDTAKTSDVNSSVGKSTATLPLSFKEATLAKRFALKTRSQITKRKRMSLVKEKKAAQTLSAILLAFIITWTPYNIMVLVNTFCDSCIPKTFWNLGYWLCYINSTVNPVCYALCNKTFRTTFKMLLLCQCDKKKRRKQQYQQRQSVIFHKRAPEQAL

SMILES	pKi (hM3 muscarinic receptor)	pEC50 (hβ2 adrenergic receptor)	inhibition in vivo at 0.1 mg [1, 2] [%]	pKi (hM3 muscarinic receptor; [3])	Broncho. at 24 h [1, 2]	inhibition in vivo at 0.1 mg ([1]; Rattus norvegicus, 24 h) [%]
CC(Cc1cccc(NC(=O)CCCN(C)C(=O)CCN2CCC(OC(=O)Nc3ccccc3-c3ccccc3)CC2)c1)NC[C@H](O)c1ccc(O)c2[nH]c(=O)ccc12 (stereo partly drawn) [Compound I-10]	10.00	9.00	> 30	–	–	–
Cc1cc(NC(=O)CCCN(C)C(=O)CCN2CCC(OC(=O)Nc3ccccc3-c3ccccc3)CC2)c(C)cc1CNC[C@H](O)c1ccc(O)c2[nH]c(=O)ccc12 [Compound I-5]	10.00	9.00	> 30	–	–	–
COc1cc(NC(=O)c2cccc(N(C)C(=O)CCN3CCC(OC(=O)Nc4ccccc4-c4ccccc4)CC3)c2)c(Cl)cc1CNC[C@H](O)c1ccc(O)c2[nH]c(=O)ccc12 [Compound I-31]	–	9.00	> 30	9.70	–	–
Cc1ccc(C(=O)Nc2cccc(CC(C)NC[C@H](O)c3ccc(O)c4[nH]c(=O)ccc34)c2)cc1N(C)C(=O)CCN1CCC(OC(=O)Nc2ccccc2-c2ccccc2)CC1 (stereo partly drawn) [Compound I-37]	9.70	9.00	–	–	No	–
CC(Cc1ccc(CCNC(=O)Cc2ccc(N(C)C(=O)CCN3CCC(OC(=O)Nc4ccccc4-c4ccccc4)CC3)cc2)cc1)NC[C@H](O)c1ccc(O)c2[nH]c(=O)ccc12 (stereo partly drawn) [Compound I-88]	10.00	9.00	> 30	–	–	–
C[C@H](Cc1cccc(NC(=O)c2cccc(N(C)C(=O)CCN3CCC(OC(=O)Nc4ccccc4-c4ccccc4)CC3)c2)c1)NC[C@H](O)c1ccc(O)c2[nH]c(=O)ccc12 [Compound I-38]	9.70	9.00	–	–	No	–
C[C@H](Cc1ccc(CNC(=O)c2cccc(N(C)C(=O)CCN3CCC(OC(=O)Nc4ccccc4-c4ccccc4)CC3)c2)cc1)NC[C@H](O)c1ccc(O)c2[nH]c(=O)ccc12 [Compound I-48]	9.52	9.00	> 30	–	–	–
COc1cc(CNC[C@H](O)c2ccc(O)c3[nH]c(=O)ccc23)ccc1NC(=O)c1cccc(N(C)C(=O)CCN2CCC(OC(=O)Nc3ccccc3-c3ccccc3)CC2)c1 [Compound I-29]	–	9.00	–	10.00	No	–
C[C@@H](Cc1cccc(CC(=O)NCCCCN(C)C(=O)CCN2CCC(OC(=O)Nc3ccccc3-c3ccccc3)CC2)c1)NC[C@H](O)c1ccc(O)c2[nH]c(=O)ccc12 [Compound I-24]	10.00	9.00	> 30	–	–	–
C[C@H](Cc1cccc(CCNC(=O)c2ccc(N(C)C(=O)CCN3CCC(OC(=O)Nc4ccccc4-c4ccccc4)CC3)cc2)c1)NC[C@H](O)c1ccc(O)c2[nH]c(=O)ccc12 [Compound I-55]	–	9.00	> 30	9.70	–	–
COc1cc(NC(=O)Cc2cccc(N(C)C(=O)CCN3CCC(OC(=O)Nc4ccccc4-c4ccccc4)CC3)c2)c(Cl)cc1CNC[C@H](O)c1ccc(O)c2[nH]c(=O)ccc12 [Compound I-61]	–	9.00	> 30	10.00	–	–
C[C@H](Cc1cccc(CCC(=O)NCc2ccc(N(C)C(=O)CCN3CCC(OC(=O)Nc4ccccc4-c4ccccc4)CC3)cc2)c1)NC[C@H](O)c1ccc(O)c2[nH]c(=O)ccc12 [Compound I-92]	9.70	9.00	> 30	–	–	–
CN(C(=O)CCN1CCC(OC(=O)Nc2ccccc2-c2ccccc2)CC1)c1cccc(C(=O)Nc2cccc(CCNC[C@H](O)c3ccc(O)c4[nH]c(=O)ccc34)c2)c1 [Compound I-32]	10.00	9.00	–	–	No	–
Cc1ccc(C(=O)NCc2cccc(CC(C)NC[C@H](O)c3ccc(O)c4[nH]c(=O)ccc34)c2)cc1N(C)C(=O)CCN1CCC(OC(=O)Nc2ccccc2-c2ccccc2)CC1 (stereo partly drawn) [Compound I-45]	–	9.00	–	9.70	No	–
CN(CCCC(=O)Nc1ccc(CCNC[C@H](O)c2ccc(O)c3[nH]c(=O)ccc23)cc1)C(=O)CCN1CCC(OC(=O)Nc2ccccc2-c2ccccc2)CC1 [Compound I-8]	10.00	9.00	> 30	–	–	–
C[C@H](Cc1cccc(CC(=O)NCCCCN(C)C(=O)CCN2CCC(OC(=O)Nc3ccccc3-c3ccccc3)CC2)c1)NC[C@H](O)c1ccc(O)c2[nH]c(=O)ccc12 [Compound I-23]	10.00	9.00	> 30	–	–	–
CC(Cc1cccc(CC(=O)NCc2ccc(N(C)C(=O)CCN3CCC(OC(=O)Nc4ccccc4-c4ccccc4)CC3)cc2)c1)NC[C@H](O)c1ccc(O)c2[nH]c(=O)ccc12 (stereo partly drawn) [Compound I-77]	10.00	9.00	> 30	–	–	–
COc1ccc(CC(C)NC[C@H](O)c2ccc(O)c3[nH]c(=O)ccc23)cc1CC(=O)NCc1ccc(N(C)C(=O)CCN2CCC(OC(=O)Nc3ccccc3-c3ccccc3)CC2)cc1 (stereo partly drawn) [Compound I-94]	–	9.00	> 30	10.00	–	–
Cc1cc(NC(=O)CCCCN(C)C(=O)CCN2CCC(OC(=O)Nc3ccccc3-c3ccccc3)CC2)c(C)cc1CNC[C@H](O)c1ccc(O)c2[nH]c(=O)ccc12 [Compound I-18, Biphenyl-2-ylcarbamic Acid 1-(2-{[4-(4-{[(R)-2-Hydroxy-2-(8-hydroxy-2-oxo-1,2-dihydroquinolin-5-yl)ethylamino]methyl}-2,5-dimethylphenylcarbamoyl)butyl]methylcarbamoyl}ethyl)piperidin-4-yl Ester Ditrifluoroacetic Acid Salt]	10.00	9.00	–	–	–	> 30
CC(Cc1cccc(CCC(=O)NCc2ccc(N(C)C(=O)CCN3CCC(OC(=O)Nc4ccccc4-c4ccccc4)CC3)cc2)c1)NC[C@H](O)c1ccc(O)c2[nH]c(=O)ccc12 (stereo partly drawn) [Compound I-91]	9.70	9.00	> 30	–	–	–
Cc1cc(CNC[C@H](O)c2ccc(O)c3[nH]c(=O)ccc23)ccc1NC(=O)CCCCN(C)C(=O)CCN1CCC(OC(=O)Nc2ccccc2-c2ccccc2)CC1 [Compound I-15]	10.00	9.00	> 30	–	–	–
Cc1ccc(C(=O)Nc2ccc(CNC[C@H](O)c3ccc(O)c4[nH]c(=O)ccc34)cc2)cc1N(C)C(=O)CCN1CCC(OC(=O)Nc2ccccc2-c2ccccc2)CC1 [Compound I-26]	9.70	9.00	> 30	–	–	–
CC(Cc1cccc(CNC(=O)c2cccc(N(C)C(=O)CCN3CCC(OC(=O)Nc4ccccc4-c4ccccc4)CC3)c2)c1)NC[C@H](O)c1ccc(O)c2[nH]c(=O)ccc12 (stereo partly drawn) [Compound I-44]	10.00	9.00	–	–	No	–
CC(Cc1cccc(CC(=O)NCCCCN(C)C(=O)CCN2CCC(OC(=O)Nc3ccccc3-c3ccccc3)CC2)c1)NC[C@H](O)c1ccc(O)c2[nH]c(=O)ccc12 (stereo partly drawn) [Compound I-22]	10.00	9.00	> 30	–	–	–
CC(Cc1cccc(CC(=O)NCCCN(C)C(=O)CCN2CCC(OC(=O)Nc3ccccc3-c3ccccc3)CC2)c1)NC[C@H](O)c1ccc(O)c2[nH]c(=O)ccc12 (stereo partly drawn) [Compound I-11]	10.00	9.00	> 30	–	–	–
Cc1cc(CNC[C@H](O)c2ccc(O)c3[nH]c(=O)ccc23)ccc1NC(=O)c1cccc(N(C)C(=O)CCN2CCC(OC(=O)Nc3ccccc3-c3ccccc3)CC2)c1 [Compound I-27]	10.00	9.00	–	–	No	–
C[C@@H](Cc1cccc(CCNC(=O)c2ccc(N(C)C(=O)CCN3CCC(OC(=O)Nc4ccccc4-c4ccccc4)CC3)cc2)c1)NC[C@H](O)c1ccc(O)c2[nH]c(=O)ccc12 [Compound I-56]	–	9.00	–	9.70	No	–
CN(CCCCC(=O)Nc1cccc(CCNC[C@H](O)c2ccc(O)c3[nH]c(=O)ccc23)c1)C(=O)CCN1CCC(OC(=O)Nc2ccccc2-c2ccccc2)CC1 [Compound I-20]	10.00	9.00	> 30	–	–	–
